In BindingDB's records for doi:10.1021/jm000023o (Cocensys, 2000):

What was measured:
[1] = Concentration required for 50% Inhibition of responses at cloned NR1A/2AB N-methyl-D-aspartate (NMDA) expressed in Xenopus oocytes
[2] = as above; remark: listed apart in the source

| IC50 [1] [µM] | IC50 [2] [µM] | SMILES |
| --- | --- | --- |
| 6.1 |  | C(#Cc1ccc2cc[nH]c2c1)CCN1CCC(Cc2ccccc2)CC1 [6-[4-(4-Benzyl-piperidin-1-yl)-but-1-ynyl]-1H-indole] |
|  | 0.1 | Oc1ccc(C#CCN2CCC(Cc3ccccc3)CC2)cc1 [4-[3-(4-Benzyl-piperidin-1-yl)-prop-1-ynyl]-phenol] |
